In patent US5498775A, “Polyanionic benzylglycosides as inhibitors of smooth muscle cell proliferation” (American Home Products Corporation, priority 1994, dated 1996):

System: human and porcine aortic smooth muscle cells and human aortic endothelial cells
Test: Cytotoxicity, MTT assay
Type: cell-based
Conditions: up to 250 μM, 24 h at 37° C., without serum
Text: The ability of the compounds of the present invention to inhibit smooth muscle cell proliferation and modulate endothelial cell growth was established using isolated aortic cells obtained from commercial sources or, for certain species, prepared in-house. Cell lines used in this study include human and porcine aortic smooth muscle cells and human aortic endothelial cells. Human aortic cell lines were obtained from Clonetics Corporation (San Diego).
Briefly, cells were again grown in 24 well plates to 70-80% confluency and, as before, serum deprived for 24-48 h prior to initiation of the experimental protocol. To insure that the MTT assay monitored toxicity rather than proliferation, cells were incubated with 250 μM drug in fresh medium without serum for 24 h at 37° C. in a humidified CO2 incubator. Upon completion of the compound treatment, MTT (3-[4,5-dimethylthiazol-2-yl]-2,5-diphenyltetrazolium bromide) indicator dye was added for 4 h at 37° C. Cells were then lysed and aliquots from each well were transferred to a 96 well plate for analysis. Absorbance at 570 nm wavelength with a reference wavelength of 630 nm was recorded using an ELISA plate reader. Results are reported as percent viable using no drug (100% viable) and pre-solubilization (0% viable) standards.

SMILES: Cc1ccc(CO[C@@H]2O[C@H](COS(=O)(=O)O)[C@@H](O[C@H]3O[C@H](COS(=O)(=O)O)[C@@H](OS(=O)(=O)O)[C@H](OS(=O)(=O)O)[C@H]3OS(=O)(=O)O)[C@H](OS(=O)(=O)O)[C@H]2OS(=O)(=O)O)cc1NC(=O)c1cccc(NC(=O)Nc2cccc(C(=O)Nc3cc(CO[C@@H]4O[C@H](COS(=O)(=O)O)[C@@H](O[C@H]5O[C@H](COS(=O)(=O)O)[C@@H](OS(=O)(=O)O)[C@H](OS(=O)(=O)O)[C@H]5OS(=O)(=O)O)[C@H](OS(=O)(=O)O)[C@H]4OS(=O)(=O)O)ccc3C)c2)c1 [EXAMPLE 26, STEP 5]
- cytotoxicity (MTT): No toxicity was observed up to 250 μM
